Columns and labels:
[1] = tested on: C57Bl/6J mice; test: Pre-pulse Inhibition (PPI) of startle in mice; assay type: in vivo; set-up: key: −: No change in PPI; +: Significant increase in PPI at one pre-pulse intensity (P value < 0.05); ++: Significant increase in PPI at two pre-pulse intensities (P value < 0.05); +++: Significant increase in PPI at three pre-pulse intensities (P value < 0.05); details: 30 min prior to PPI test, vs. vehicle
Method: (§1) Anti-psychotic like activity of the compounds was evaluated […] using the PCP hyperactivity (in rats) and Pre-Pulse Inhibition (PPI; in mice) models of schizophrenia.
Animals—PPI: Male C57Bl/6J mice from Jackson Laboratories (Bar Harbor, Me.) were used in these studies. Upon receipt, mice were assigned unique identification numbers (tail marked) and were group housed with 4 mice per cage in OptiMICE ventilated cages. All animals remained housed in groups of four during the remainder of the study. All mice were acclimated to the colony room for at least one week prior to testing. During the period of acclimation, mice were examined on a regular basis, handled, and weighed to assure adequate health and suitability. Animals were maintained on a 12/12 light/dark cycle. The room temperature was maintained between 20 and 23° C. with a relative humidity maintained between 30% and 70%. Chow and water were provided ad libitum for the duration of the study. In each test, animals were randomly assigned across treatment groups.
The acoustic startle is an unconditioned reflex response to an external auditory stimulus. Prepulse inhibition of startle (PPI) refers to the reduction in the startle response caused by the presentation of a low-intensity auditory stimulus prior to the startle stimulus. The PPI paradigm is used for the study of schizophrenia and antipsychotic action due to the similarities between the results from human and rodent studies. PPI has been used as a tool for the assessment of deficiencies in sensory-motor gating observed in schizophrenia and to screen for potential antipsychotic drugs. Various psychotomimetic drugs such as PCP can disrupt PPI. In mice, antipsychotic drugs such as clozapine can reverse the disruption of PPI induced by PCP.
Mice were placed in the PPI chambers (Med Associates) for a 5 min session of white noise (70 dB) habituation. After the habituation period the test session was initiated. The session started with a habituation block of 6 presentations of the startle stimulus alone, followed by 10 PPI blocks, each of which consisted of 6 different types of trials. Trial types were: ‘null’ (no stimuli), ‘startle’ (120 dB), ‘startle plus prepulse’ (4, 8 and 12 dB over background noise, i.e., 74, 78 or 82 dB) and ‘prepulse’ (82 dB). Trial types were presented in a random order within each block. Each trial started with a 50 ms stimulus-free period during which baseline movements were recorded. This was followed by a subsequent 20 ms period during which the prepulse stimulus was presented and responses to the prepulse measured. After a further 100 ms period, the startle stimulus was presented for 40 ms and responses recorded for 100 ms from startle onset. Responses were sampled every ms. The inter-trial interval was variable with an average of 15 s (range from 10 to 20 s). In ‘startle’ trials the basic auditory startle response was measured. The basic startle response was calculated as the mean startle response of all ‘startle’ trials (i.e., excluding the first habituation block). In ‘startle plus prepulse’ trials the degree of inhibition of the normal startle was calculated and expressed as a percentage of the basic startle response.
Mice were treated with vehicle, haloperidol (1 mg/kg; i.p) or test compound 30 min prior to PPI test. The PPI enclosures were cleaned following each test.

[2] = tested on: Sprague Dawley rats; test: PCP-induced hyperactivity in rats; assay type: in vivo; set-up: key: −: No inhibition of PCP hyperactivity; +: Significant inhibition of PCP hyperactivity (P value < 0.05); details: vs. vehicle + PCP
Method: as §1
Animals: PCP Hyperactivity: Male Sprague Dawley rats from Harlan (Indianapolis, Ind.) were used in these studies. Upon receipt, rats were assigned unique identification numbers and were group housed with 3 rats per cage in polycarbonate cages with micro-isolator filter tops. All rats were examined, handled, and weighed prior to initiation of the study to assure adequate health and suitability. The rats were maintained at 12/12 light/dark cycle with lights on at 7:00 am EST. The room temperature was maintained between 20 and 23° C. with a relative humidity maintained around 50%. Chow and water were provided ad libitum for the duration of the study. For each test, animals were randomly assigned across treatment groups.
The test chambers were Plexiglas rectangular chambers (24×45 cm) that fit inside two steel frames (9.5×18 inches) and were fitted with two-dimensional 4×8 beam grids to monitor horizontal and vertical locomotor activity (Hamilton Kinder, San Diego, Calif.). The analysis was configured to divide the open field of the chamber into a center and a periphery zone. Distance traveled was measured from horizontal beam breaks as the rat traveled whereas rearing activity was measured from vertical beam breaks.
Rats were administered with vehicle, test compound, or risperidone (0.5-1 mg/kg; i.p) and placed in the test chambers for 30 min measurement of baseline activity. Rats were then injected with either water or PCP (2.5 mg/kg; s.c) and placed back in the test chambers for a 60-minute session. At the end of each test session the chambers were thoroughly cleaned.

[3] = 3 mg/kg Compound + PCP (2.5 mg/kg s.c.)
[4] = 10 mg/kg Compound + PCP (2.5 mg/kg s.c.)
[5] = 30 mg/kg Compound + PCP (2.5 mg/kg s.c.)

Cc1c(C2C=CN=CN2)sc2ccccc12.Cl (stereo not drawn) [Compound 20]
Effect on Pre-pulse Inhibition (PPI) ([1]; 3 mg/kg): − | Effect on Pre-pulse Inhibition (PPI) ([1]; 10 mg/kg): − | Effect on Pre-pulse Inhibition (PPI) ([1]; 30 mg/kg): − | Total Distance Traveled (cm), PCP-induced hyperactivity [2, 3]: + | Total Distance Traveled (cm), PCP-induced hyperactivity [2, 4]: − | Total Distance Traveled (cm), PCP-induced hyperactivity [2, 5]: +

Cl.Fc1sc2ccccc2c1C1C=CN=CN1 (stereo not drawn) [Compound 15]
Effect on Pre-pulse Inhibition (PPI) ([1]; 3 mg/kg): − | Effect on Pre-pulse Inhibition (PPI) ([1]; 10 mg/kg): + | Effect on Pre-pulse Inhibition (PPI) ([1]; 30 mg/kg): ++ | Total Distance Traveled (cm), PCP-induced hyperactivity [2, 3]: − | Total Distance Traveled (cm), PCP-induced hyperactivity [2, 4]: − | Total Distance Traveled (cm), PCP-induced hyperactivity [2, 5]: −

Fc1ccc2c(c1)N=CNC2c1c(F)sc2ccccc12 (stereo not drawn) [Compound 239]
Effect on Pre-pulse Inhibition (PPI) ([1]; 3 mg/kg): − | Effect on Pre-pulse Inhibition (PPI) ([1]; 10 mg/kg): − | Effect on Pre-pulse Inhibition (PPI) ([1]; 30 mg/kg): +++ | Total Distance Traveled (cm), PCP-induced hyperactivity [2, 3]: + (increase) | Total Distance Traveled (cm), PCP-induced hyperactivity [2, 4]: + (increase) | Total Distance Traveled (cm), PCP-induced hyperactivity [2, 5]: + (increase)

Cc1cc(C2C=CN=CN2)cs1.Cl (stereo not drawn) [Compound 21]
Effect on Pre-pulse Inhibition (PPI) ([1]; 3 mg/kg): − | Effect on Pre-pulse Inhibition (PPI) ([1]; 10 mg/kg): − | Effect on Pre-pulse Inhibition (PPI) ([1]; 30 mg/kg): − | Total Distance Traveled (cm), PCP-induced hyperactivity [2, 4]: − | Total Distance Traveled (cm), PCP-induced hyperactivity [2, 5]: − | Total Distance Traveled (cm), PCP-induced hyperactivity ([2]; 100 mg/kg Compound + PCP (2.5 mg/kg s.c.)): −

Cc1sc2ccccc2c1C1C=CN=CN1 (stereo not drawn) [Compound 3]
Effect on Pre-pulse Inhibition (PPI) ([1]; 3 mg/kg): + | Effect on Pre-pulse Inhibition (PPI) ([1]; 10 mg/kg): + | Effect on Pre-pulse Inhibition (PPI) ([1]; 30 mg/kg): +++ | Total Distance Traveled (cm), PCP-induced hyperactivity [2, 3]: − | Total Distance Traveled (cm), PCP-induced hyperactivity [2, 4]: + | Total Distance Traveled (cm), PCP-induced hyperactivity [2, 5]: +

From patent US10556890B2, “Heteroaryl compounds and methods of use thereof” (Sunovion Pharmaceuticals Inc., priority 2012, dated 2020)
